From PubChem BioAssay (NCI)
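Test compounds were applied to cells in 96-well plates for 48 hours at 5 doses. The concentration for 50% growth inhibition is given as GI50. TGI: concentration producing complete growth inhibition.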

Legend:
Assay in all cases: NCI tumour cell line growth inhibition, 48 h
TK-10 renal = test system: TK-10 renal
NCI-H522 lung = test system: NCI-H522 lung
HT29 colon = test system: HT29 colon
UO-31 renal = test system: UO-31 renal
T-47D breast = test system: T-47D breast
SF-539 CNS = test system: SF-539 CNS
SK-OV-3 ovarian = test system: SK-OV-3 ovarian
SW-620 colon = test system: SW-620 colon
KM12 colon = test system: KM12 colon
SK-MEL-5 melanoma = test system: SK-MEL-5 melanoma
786-0 renal = test system: 786-0 renal
HS 578T breast = test system: HS 578T breast
UACC-62 melanoma = test system: UACC-62 melanoma
RXF 393 renal = test system: RXF 393 renal
COLO 205 colon = test system: COLO 205 colon
K-562 leukemia = test system: K-562 leukemia
EKVX NSCLC = test system: EKVX NSCLC
ACHN renal = test system: ACHN renal
NCI/ADR-RES ovarian = test system: NCI/ADR-RES ovarian
OVCAR-4 ovarian = test system: OVCAR-4 ovarian
MCF7 breast = test system: MCF7 breast
OVCAR-3 ovarian = test system: OVCAR-3 ovarian
HCC-2998 colon = test system: HCC-2998 colon
NCI-H23 lung = test system: NCI-H23 lung
MDA-MB-231 breast = test system: MDA-MB-231 breast
MALME-3M melanoma = test system: MALME-3M melanoma
SNB-75 CNS = test system: SNB-75 CNS
A549 NSCLC = test system: A549 NSCLC
SNB-19 CNS = test system: SNB-19 CNS
U251 CNS = test system: U251 CNS
HOP-62 NSCLC = test system: HOP-62 NSCLC
NCI-H460 lung = test system: NCI-H460 lung
CAKI-1 renal = test system: CAKI-1 renal
BT-549 breast = test system: BT-549 breast
SF-268 CNS = test system: SF-268 CNS
MDA-MB-435 = test system: MDA-MB-435
HCT-15 colon = test system: HCT-15 colon
DU-145 prostate = test system: DU-145 prostate
HCT-116 colon = test system: HCT-116 colon
RPMI-8226 leukemia = test system: RPMI-8226 leukemia

Work on `Nc1ccn(C2OC(CO)C3[O][Sn]([c]4ccccc4)([c]4ccccc4)[O]C32)c(=O)n1` (stereo not given) yielded a GI50 (TK-10 renal) of 32.3 µM, a GI50 (NCI-H522 lung) of 10.8 µM and a TGI (NCI-H522 lung) of 29 µM. For the same compound, the GI50 (HT29 colon) was 1.45 µM, the GI50 (UO-31 renal) was 0.221 µM and the GI50 (T-47D breast) was 15.3 µM. The GI50 (SF-539 CNS) was 2.17 µM, the TGI (SF-539 CNS) was 20.5 µM and the GI50 (SK-OV-3 ovarian) was 26.6 µM. It also gave a GI50 (SW-620 colon) of 0.803 µM, a TGI (SW-620 colon) of 61.5 µM and a GI50 (KM12 colon) of 35.5 µM. For the same compound, the GI50 (SK-MEL-5 melanoma) was 3.75 µM, the GI50 (786-0 renal) was 0.656 µM and the GI50 (HS 578T breast) was 29.5 µM. It also gave a GI50 (UACC-62 melanoma) of 6.36 µM, a GI50 (RXF 393 renal) of 1.73 µM and a TGI (RXF 393 renal) of 22.3 µM. The GI50 (COLO 205 colon) was 0.141 µM, the GI50 (K-562 leukemia) was 53.2 µM and the GI50 (EKVX NSCLC) was 34.2 µM. For the same compound, the GI50 (ACHN renal) was 0.361 µM, the GI50 (NCI/ADR-RES ovarian) was 4.73 µM and the GI50 (OVCAR-4 ovarian) was 43.1 µM. For the same compound, the GI50 (MCF7 breast) was 0.0984 µM, the GI50 (OVCAR-3 ovarian) was 34.8 µM and the GI50 (HCC-2998 colon) was 0.0629 µM. The TGI (HCC-2998 colon) was 17.9 µM, the GI50 (NCI-H23 lung) was 0.39 µM and the GI50 (MDA-MB-231 breast) was 24.1 µM. For the same compound, the TGI (MDA-MB-231 breast) was 82.6 µM, the GI50 (MALME-3M melanoma) was 17.9 µM and the GI50 (SNB-75 CNS) was 14 µM. The TGI (SNB-75 CNS) was 50.1 µM, the GI50 (A549 NSCLC) was 0.0344 µM and the GI50 (SNB-19 CNS) was 3.34 µM. It also gave a GI50 (U251 CNS) of 0.617 µM, a TGI (U251 CNS) of 22.8 µM and a GI50 (HOP-62 NSCLC) of 1.51 µM. The GI50 (NCI-H460 lung) was 0.0187 µM, the GI50 (CAKI-1 renal) was 4.66 µM and the GI50 (BT-549 breast) was 30.7 µM. It also gave a GI50 (SF-268 CNS) of 1.79 µM, a GI50 (MDA-MB-435) of 6.25 µM and a GI50 (HCT-15 colon) of 15 µM. The GI50 (DU-145 prostate) was 0.149 µM, the TGI (DU-145 prostate) was 19.6 µM and the GI50 (HCT-116 colon) was 0.024 µM. For the same compound, the GI50 (RPMI-8226 leukemia) was 13.7 µM and the TGI (RPMI-8226 leukemia) was 49.1 µM.
